In patent US7776847B2, “Benzisothiazoles useful for treating or preventing HCV infection” (priority 2005, dated 2010):
Where two headings read alike, the source gives them in different places.

Test system: HCV replicon
Assay: HCV replicon luciferase reporter assay
Format: cell-based
Design: scale not given here
Description: The inhibitory activity of certain exemplary compounds of the invention was confirmed using an HCV replicon assay. The HCV replicon can include such features as the HCV IRES, the HCV 3′ untranslated region, selected HCV genes encoding HCV polypeptides, selectable markers, and a reporter gene such as luciferase, GFP, etc. In the assay, actively dividing replicon-comprising cells were seeded at a density of between about 5,000 and 7,500 cells/well onto 96 well plates (about 90 μl of cells per well) and incubated at 37° C. and 5% CO2 for 24 hours. Then, the test compound (in a volume of about 10 μL) was added at various concentrations to each well and the cells were incubated for an additional 24-48 hours. The cells were harvested, and HCV replication or translation was monitored via a reporter assay, e.g., a luciferase reporter assay. The media was aspirated from each cell and Bright-Glo ([…].) luciferase assay reagents were added to each well according to the manufacturer's instructions. In this assay, the amount of test compound that yielded a 50% reduction in luciferase activity (IC50) was determined.

[1] = Hepatitis C virus, Table 5, read-out: IC50
[2] = Table 5, the head prints only IC50, b387 says Tables 5 and 6 hold Replicon reporter and Western blot results

SMILES	IC50 [1] [µM]	also measured
O=[N+]([O-])c1cccc(S(=O)(=O)NCCCNc2nsc3ccccc23)c1 [Compound 242, N-(3-(benzo[d]isothiazol-3-ylamino)propyl)-3-nitrobenzenesulfonamide]	< 5	
COC(=O)c1ccccc1S(=O)(=O)NCCCNc1nsc2ccccc12 [Compound 243, methyl 2-(N-(3-(benzo[d]isothiazol-3-ylamino)propyl)sulfamoyl)benzoate]	< 5	
COC(=O)c1ccc(S(=O)(=O)NCCCNc2nsc3ccccc23)o1 [Compound 244, methyl 5-(N-(3-(benzo[d]isothiazol-3-ylamino)propyl)sulfamoyl)furan-2-carboxylate]	< 5	
O=S(=O)(NCCCNc1nsc2ccccc12)c1ccc(C(F)(F)F)cc1 [Compound 245, N-(3-(benzo[d]isothiazol-3-ylamino)propyl)-4-(trifluoromethyl)benzenesulfonamide]	< 5	
O=S(=O)(NCCCNc1nsc2ccccc12)c1cc(C(F)(F)F)cc(C(F)(F)F)c1 [Compound 246, N-(3-(benzo[d]isothiazol-3-ylamino)propyl)-3,5-bis(trifluoromethyl)benzenesulfonamide]	< 5	
Cc1nc(S(=O)(=O)NCCCNc2nsc3ccccc23)cn1C [Compound 248, N-(3-(benzo[d]isothiazol-3-ylamino)propyl)-1,2-dimethyl-1H-imidazole-4-sulfonamide]	< 5	
O=S(=O)(NCCCNc1nsc2ccccc12)c1cccc2cccnc12 [Compound 249, N-(3-(benzo[d]isothiazol-3-ylamino)propyl)quinoline-8-sulfonamide]	< 5	
O=S(=O)(NCCCNc1nsc2ccccc12)c1ccc(F)c(F)c1F [Compound 250, N-(3-(benzo[d]isothiazol-3-ylamino)propyl)-2,3,4-trifluorobenzenesulfonamide]	< 5	
COc1ccc(S(=O)(=O)NCCCNc2nsc3ccccc23)cc1 [Compound 251, N-(3-(benzo[d]isothiazol-3-ylamino)propyl)-4-methoxybenzenesulfonamide]	< 5	
O=C(N1CCc2ccc(S(=O)(=O)NCCCNc3nsc4ccccc34)cc2C1)C(F)(F)F [Compound 252, N-(3-(benzo[d]isothiazol-3-ylamino)propyl)-2-(2,2,2-trifluoroacetyl)-1,2,3,4-tetrahydroisoquinoline-7-sulfonamide]		IC50 (Hepatitis C virus): < 5 µM
O=S(=O)(NCCCNc1nsc2ccccc12)c1c(F)cc(F)cc1Br [Compound 253, N-(3-(benzo[d]isothiazol-3-ylamino)propyl)-2-bromo-4,6-difluorobenzenesulfonamide]	< 5	
O=S(=O)(c1ccccc1C(F)(F)F)N(CCCNc1nsc2ccccc12)Cc1ccccc1 [Compound 254, N-(3-(benzo[d]isothiazol-3-ylamino)propyl)-N-benzyl-2-(trifluoromethyl)benzenesulfonamide]	< 5	
COc1ccc(-c2ccc(CN(CCCNc3nsc4ccccc34)C(=O)CN3CCOCC3)cc2)cc1 [Compound 255, N-(3-(benzo[d]isothiazol-3-ylamino)propyl)-N-((4′-methoxybiphenyl-4-yl)methyl)-2-morpholinoacetamide]	< 5	
COc1ccc(-c2ccc(CN(CCCNc3nsc4ccccc34)C(=O)CN3CCN(c4ccccc4)CC3)cc2)cc1 [Compound 256, N-(3-(benzo[d]isothiazol-3-ylamino)propyl)-N-((4′-methoxybiphenyl-4-yl)methyl)-2-(4-phenylpiperazin-1-yl)acetamide]	< 5	
COc1ccc(-c2ccc(CN(CCCNc3nsc4ccccc34)C(=O)CNC(C)C)cc2)cc1 [Compound 257, N-(3-(benzo[d]isothiazol-3-ylamino)propyl)-2-(isopropylamino)-N-((4′-methoxybiphenyl-4-yl)methyl)acetamide]	< 5	
COc1ccc(NS(=O)(=O)c2ccc(CNCCCNc3nsc4ccccc34)cc2)cc1 [Compound 258, 4-((3-(benzo[d]isothiazol-3-ylamino)propylamino)methyl)-N-(4-methoxyphenyl)benzenesulfonamide]	< 5	
O=S(=O)(c1ccc(CNCCCNc2nsc3ccccc23)cc1)N1CCOCC1 [Compound 259, N^1-(benzo[d]isothiazol-3-yl)-N^3-(4-(morpholinosulfonyl)benzyl)propane-1,3-diamine]	> 5	
O=S(=O)(c1ccc(CNCCCNc2nsc3ccccc23)cc1)N1CCCC1 [Compound 260, N^1-(benzo[d]isothiazol-3-yl)-N^3-(4-(pyrrolidin-1-ylsulfonyl)benzyl)propane-1,3-diamine]	> 5	
COc1ccc(OC)c(S(=O)(=O)NCCCNc2nsc3ccccc23)c1 [Compound 261, N-(3-(benzo[d]isothiazol-3-ylamino)propyl)-2,5-dimethoxybenzenesulfonamide]	< 5	
O=S(=O)(NCCCNc1nsc2ccccc12)c1ccc(Br)cc1Cl [Compound 262, N-(3-(benzo[d]isothiazol-3-ylamino)propyl)-4-bromo-2-chlorobenzenesulfonamide]	< 5	

SMILES	IC50 [1] [µM]	also measured
O=S(=O)(NCCCNc1nsc2ccccc12)c1ccc(Br)cc1C(F)(F)F [Compound 263, N-(3-(benzo[d]isothiazol-3-ylamino)propyl)-4-bromo-2-(trifluoromethyl)benzenesulfonamide]	< 5	
COc1ccc(S(=O)(=O)NCCCNc2nsc3ccccc23)cc1OC [Compound 264, N-(3-(benzo[d]isothiazol-3-ylamino)propyl)-3,4-dimethoxybenzenesulfonamide]	< 5	
Cc1cc(S(=O)(=O)NCCCNc2nsc3ccccc23)ccc1Br [Compound 265, N-(3-(benzo[d]isothiazol-3-ylamino)propyl)-4-bromo-3-methylbenzenesulfonamide]	< 5	
O=S(=O)(NCCCNc1nsc2ccccc12)c1cccc(OC(F)(F)F)c1 [Compound 266, N-(3-(benzo[d]isothiazol-3-ylamino)propyl)-3-(trifluoromethoxy)benzenesulfonamide]	< 5	
O=S(=O)(NCCCNc1nsc2ccccc12)c1c(Cl)cc(Br)cc1Cl [Compound 267, N-(3-(benzo[d]isothiazol-3-ylamino)propyl)-4-bromo-2,6-dichlorobenzenesulfonamide]	< 5	
O=S(=O)(NCCCNc1nsc2ccccc12)c1cccc(Br)c1 [Compound 268, N-(3-(benzo[d]isothiazol-3-ylamino)propyl)-3-bromobenzenesulfonamide]	< 5	
O=S(=O)(NCCCNc1nsc2ccccc12)c1ccc(Br)c(C(F)(F)F)c1 [Compound 269, N-(3-(benzo[d]isothiazol-3-ylamino)propyl)-4-bromo-3-(trifluoromethyl)benzenesulfonamide]	< 5	
COc1ccc(-c2ccc(CN(CCCNc3nsc4ccccc34)S(=O)(=O)c3ccccc3C(F)(F)F)cc2)cc1 [Compound 270, N-(3-(benzo[d]isothiazol-3-ylamino)propyl)-N-((4′-methoxybiphenyl-4-yl)methyl)-2-(trifluoromethyl)benzenesulfonamide]	< 5	
O=S(=O)(NCCNc1nsc2ccccc12)c1ccc(Cl)cc1 [Compound 271, N-(2-(benzo[d]isothiazol-3-ylamino)ethyl)-4-chlorobenzenesulfonamide]		IC50 [2]: A, B
c1ccc(CNCCNc2nsc3ccccc23)nc1 [Compound 272, N^1-(benzo[d]isothiazol-3-yl)-N^2-(pyridin-2-ylmethyl)ethane-1,2-diamine]		IC50 [2]: A, B
CCCc1ccc(C(=O)NCCCNc2nsc3ccccc23)cc1 [Compound 273, N-(3-(benzo[d]isothiazol-3-ylamino)propyl)-4-propylbenzamide]	< 5	
COc1cccnc1NCCCNc1nsc2ccccc12 [Compound 275, N^1-(benzo[d]isothiazol-3-yl)-N^3-(3-methoxypyridin-2-yl)propane-1,3-diamine]	< 5	
FC(F)(F)c1cccnc1NCCCNc1nsc2ccccc12 [Compound 276, N^1-(benzo[d]isothiazol-3-yl)-N^3-(3-(trifluoromethyl)pyridin-2-yl)propane-1,3-diamine]	< 5	
N#Cc1cccnc1NCCCNc1nsc2ccccc12 [Compound 277, 2-(3-(benzo[d]isothiazol-3-ylamino)propylamino)nicotinonitrile]	< 5	
Cc1cccnc1NCCCNc1nsc2ccccc12 [Compound 278, N^1-(benzo[d]isothiazol-3-yl)-N^3-(3-methylpyridin-2-yl)propane-1,3-diamine]	< 5	
CCCCc1ccc(C(=O)NCCNc2nsc3ccccc23)nc1 [Compound 279, N-(2-(benzo[d]isothiazol-3-ylamino)ethyl)-5-butylpicolinamide]	< 5	
CCCCc1ccc(C(=O)NC(CNc2nsc3ccccc23)C(=O)O)cc1 (stereo not shown) [Compound 280, 3-(benzo[d]isothiazol-3-ylamino)-2-(4-butylbenzamido)propanoic acid]	> 5	
Cc1cccc(NCCCNc2nsc3ccccc23)n1 [Compound 281, N^1-(benzo[d]isothiazol-3-yl)-N^3-(6-methylpyridin-2-yl)propane-1,3-diamine]	< 5	
COc1ccc(NCCCNc2nsc3ccccc23)nc1 [Compound 282, N^1-(benzo[d]isothiazol-3-yl)-N^3-(5-methoxypyridin-2-yl)propane-1,3-diamine]	< 5	
COc1cccc(NCCCNc2nsc3ccccc23)n1 [Compound 283, N^1-(benzo[d]isothiazol-3-yl)-N^3-(6-methoxypyridin-2-yl)propane-1,3-diamine]	< 5	
